Reference: patent US9169241B2, “Quinolinyloxyphenylsulfonamides” (Max-Planck-Gesellschaft Zur Forderung der Wissenschaften …, priority 2009, dated 2015)
Where two headings read alike, the source gives them in different places.

What was measured:
U118 = test: Cell vitality assay (ATP assay, CellTiter-Glo); type: cell-based; conditions: U118, 72 h; Table IIa; read-out: IC50 ATP-Assay after 72 h U118
Outline: (§1)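 ATP-based luminescence (CellTiter-Glo) after 72 h exposure of 1000 cells/well to seven compound concentrations from 0.195 to 12.5 μM. IC50 defined as concentration reducing ATP to 50% of DMSO control.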

Hs578T [1] = test: Cell vitality assay (ATP assay, CellTiter-Glo); type: cell-based; conditions: Homo sapiens, Hs-578T; HS578T cell line, 72 h; Table Ib; read-out: IC50 ATP-Assay HS578T after 72 h
Outline: as §1

SF126 = test: Cell vitality assay (ATP assay, CellTiter-Glo); type: cell-based; conditions: Homo sapiens, SF-126; SF126, 72 h; Table IIa; read-out: IC50 ATP-Assay after 72 h SF126
Outline: as §1

Hs578T [2] = test: Matrigel outgrowth assay/branching assay; type: cell-based; conditions: Homo sapiens, Hs-578T; HS578T cell line; Table Ib; read-out: Total branching inhibition in Matrigel HS578T
Outline: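 Cells (5000/well) were seeded onto polymerized 3 mg/ml Matrigel with compound at 3.125, 1.56 or 0.78 μM versus DMSO. Branching was imaged by inverted microscopy (5× objective) at 48, 72 and 96 h. Only concentrations giving total branching inhibition scored positive.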

indicated cell line = test: Wound healing migration assay (Table IV); type: cell-based; conditions: compounds at 12.5, 6.25, 3.125 μM, 48 h-72 h
Outline: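 Compound exposure at 12.5, 6.25 and 3.125 μM, with DMSO control, on scratch-wounded monolayers (150000 cells/24 well, overnight). Wound closure imaged by microscopy, fixed with crystal violet after 48 h or 72 h depending on cell line; IC50 is the concentration giving 50% wound size between t0 and t48/t72.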

[3] = Homo sapiens, A 172, A172 cells, read-out: IC50 Wound healing Assay A172
[4] = Homo sapiens, SF-126, SF126 cells, read-out: IC50 Wound healing Assay SF126
[5] = U118 cells, read-out: IC50 Wound healing Assay U118

SMILES	IC50 (U118) [µM]	IC50 (Hs578T [1]) [µM]	IC50 (SF126) [µM]	IC50 (Hs578T [2]) [µM]	melting point [°C]	IC50 (indicated cell line; [3]) [µM]	IC50 (indicated cell line; [4]) [µM]	IC50 (indicated cell line; [5]) [µM]
COC(=O)c1sccc1S(=O)(=O)Nc1ccc(Oc2ccnc3cc(OCCCN4CCCCC4)c(OC)cc23)c(F)c1 [Example 155, 3-{3-Fluoro-4-[6-methoxy-7-(3-piperidin-1-yl-propoxy)-quinolin-4-yloxy]-phenylsulfamoyl}-thiophene-2-carboxylic acid methyl ester]	≤ 12.5	≤ 12.5	≤ 12.5	10 to 25	138 to 139	≤ 12.5	≤ 12.5	≤ 12.5
COC(=O)c1sccc1S(=O)(=O)Nc1ccc(Oc2ccnc3cc(OCCCN4CCC(C)CC4)c(OC)cc23)c(F)c1 [Example 156, 3-(3-Fluoro-4-{6-methoxy-7-[3-(4-methyl-piperidin-1-yl)-propoxy]-quinolin-4-yloxy}-phenylsulfamoyl)-thiophene-2-carboxylic acid methyl ester]	≤ 12.5	≤ 12.5	≤ 12.5	10 to 25	139 to 141	≤ 12.5	≤ 12.5	≤ 12.5
COC(=O)c1sccc1S(=O)(=O)Nc1ccc(Oc2ccnc3cc(OCCCN4CCOCC4)c(OC)cc23)c(F)c1 [Example 157, 3-{3-Fluoro-4-[6-methoxy-7-(3-morpholin-4-yl-propoxy)-quinolin-4-yloxy]-phenylsulfamoyl}-thiophene-2-carboxylic acid methyl ester]	≤ 12.5	≤ 12.5	≤ 12.5	10 to 25	167 to 168	≤ 12.5	≤ 12.5	≤ 12.5
COC(=O)c1sccc1S(=O)(=O)Nc1ccc(Oc2ccnc3cc(OCCCN4CCN(C)CC4)c(OC)cc23)c(F)c1 [Example 158, 3-(3-Fluoro-4-{6-methoxy-7-[3-(4-methyl-piperazin-1-yl)-propoxy]-quinolin-4-yloxy}-phenylsulfamoyl)-thiophene-2-carboxylic acid methyl ester]	≤ 12.5	≤ 12.5	≤ 12.5	10 to 25	146 to 148	≤ 12.5	≤ 12.5	≤ 12.5
COc1cc2c(Oc3ccc(NS(=O)(=O)c4c(F)cccc4F)cc3F)ccnc2cc1OCCCN(C)C [Example 178, N-{4-[7-(3-Dimethylamino-propoxy)-6-methoxy-quinolin-4-yloxy]-3-fluoro-phenyl}-2,6-difluoro-benzenesulfonamide]	≤ 12.5	≤ 12.5	≤ 12.5	≤ 10	125 to 127	≤ 12.5	≤ 12.5	≤ 12.5
COc1cc2c(Oc3ccc(NS(=O)(=O)c4ccccc4OC(F)(F)F)cc3F)ccnc2cc1OCCCN(C)C [Example 179, N-{4-[7-(3-Dimethylamino-propoxy)-6-methoxy-quinolin-4-yloxy]-3-fluoro-phenyl}-2-trifluoromethoxy-benzenesulfonamide]	≤ 12.5	≤ 12.5	≤ 12.5	10 to 25	94 to 96	≤ 12.5	≤ 12.5	12.5 to 50
COc1cc2c(Oc3ccc(NS(=O)(=O)c4c(Cl)cccc4Cl)cc3F)ccnc2cc1OCCCN(C)C [Example 181, 2,6-Dichloro-N-{4-[7-(3-dimethylamino-propoxy)-6-methoxy-quinolin-4-yloxy]-3-fluoro-phenyl}-benzenesulfonamide]	≤ 12.5	≤ 12.5	≤ 12.5	≤ 10	197 to 198	≤ 12.5	≤ 12.5	≤ 12.5
COC(=O)c1sccc1S(=O)(=O)Nc1ccc(Oc2ccnc3cc(OCCCN(C)C)c(OC)cc23)c(F)c1 [Example 184, 3-{4-[7-(3-Dimethylamino-propoxy)-6-methoxy-quinolin-4-yloxy]-3-fluoro-phenylsulfamoyl}-thiophene-2-carboxylic acid methyl ester]	≤ 12.5	≤ 12.5	≤ 12.5	10 to 25	80 to 82	≤ 12.5	≤ 12.5	≤ 12.5
COc1cc2c(Oc3c(Cl)cc(NS(=O)(=O)c4c(F)cccc4F)cc3Cl)ccnc2cc1OCCCN1CCC(C)CC1 [Example 209, N-(3,5-Dichloro-4-{6-methoxy-7-[3-(4-methyl-piperidin-1-yl)-propoxy]-quinolin-4-yloxy}-phenyl)-2,6-difluoro-benzenesulfonamide]	≤ 12.5	≤ 12.5	≤ 12.5	≤ 10	146 to 151	≤ 12.5	≤ 12.5	≤ 12.5
COc1cc2c(Oc3c(Cl)cc(NS(=O)(=O)c4ccccc4C(F)(F)F)cc3Cl)ccnc2cc1OCCCN1CCC(C)CC1 [Example 210, N-(3,5-Dichloro-4-{6-methoxy-7-[3-(4-methyl-piperidin-1-yl)-propoxy]-quinolin-4-yloxy}-phenyl)-2-trifluoromethyl-benzenesulfonamide]	≤ 12.5	≤ 12.5	≤ 12.5	≤ 10	148 to 151	≤ 12.5	≤ 12.5	≤ 12.5
